Assay results: patent publication US5525328A, “Nanoparticulate diagnostic diatrizoxy ester X-ray contrast agents for blood pool and lymphatic system imaging” (NanoSystems L.L.C., priority 1994, dated 1996)

Experiments:
[1] = Particle size after milling (light scattering); type: physicochemical
Experimental: 15% Compound 2 was milled with 4% Pluronic F-108 in the presence of zirconium silicate (1.1 mm dia) beads for 3 days under aseptic conditions. No additional salts or surfactants were added. The average particle size of the resulting nanoparticle suspension was 162 nm as determined by light scattering.
(§1) Compound 2 was milled with zirconium silicate (1.1 mm dia) beads in the presence of Pluronic F-108 for 3 days. The final particle size was determined to be 235 nm. At this point, sterile PEG 400 was added to the suspension such that at completion, the formulation contained 15% (w/v) WIN 70146, 3% (w/v) Pluronic F-108, and 10% (w/v) PEG 400. This formulation was then autoclaved under standard conditions, i.e., 121° C. for 20 min., resulting in a final particle size of 248 nm.

[2] = system: spleen; assay: CT imaging, spleen opacification and clearance; type: in vivo, white New Zealand rabbits
Experimental: This sample was examined for imaging efficacy at the Center for Imaging and Pharmaceutical Research (CIPR) at the Massachusetts General Hospital in Charlestown, Mass. The sample was injected into white New Zealand rabbits at a dose of 3 ml/kg as a slow bolus injection. […], the opacification of the liver, spleen, and blood pool as measured in the aorta and within the left ventricle was determined by computed tomography (CT) using a Toshiba 900S Imager CT scanner and associated software.

[3] = system: blood pool; assay: CT imaging, blood pool opacification and clearance; type: in vivo, white New Zealand rabbits
Experimental: (§2) This sample was examined for imaging efficacy at the Center for Imaging and Pharmaceutical Research (CIPR) at the Massachusetts General Hospital in Charlestown, Mass. The sample was injected into white New Zealand rabbits at a dose of 3 ml/kg as a slow bolus injection. At times of 5, 15, 30, 60 and 120 min. post injection, the opacification of the liver, spleen, and blood pool as measured in the aorta and within the left ventricle was determined by computed tomography (CT) using a Toshiba 900S Imager CT scanner and associated software.
(§3) This formulation was evaluated at CIPR for both blood pool and lymphographic imaging in New Zealand White Rabbits using the above-described protocol (3 ml/kg) for blood pool imaging and 2 injections (0.25 ml) per paw for lymphography. […] Scanning was carried out using a Toshiba 900S Imager CT scanner and image density was calculated from iodinated standards imaged simultaneously with the animals.

[4] = Particle size after storage for 1 additional week at room temperature (shelf stability); type: physicochemical; details: with both F108 and T908
Experimental: Compound 2 was added to each of 3×1.5 oz brown glass bottles containing approximately 12 ml of zirconium silicate (1.1 mm dia.) beads in an amount sufficient to be 15% (w/v) of the final suspension. Bottle A contained 3% (w/v) Pluronic F-68. Bottle B contained 3% (w/v) Pluronic F108. Bottle C contained 3% (w/v) Tetronic T-908. The resulting suspensions were milled on a roller mill at approximately 150 rpm for a total of 9 days. Estimates of particle size determined at various intervals were as detailed below: […]

[5] = system: liver; assay: CT imaging, liver opacification and clearance; type: in vivo, white New Zealand rabbits
Experimental: as §2

[6] = Aqueous solubility relative to the butyrate ester; type: physicochemical
[7] = system: lymph; assay: Lymphographic imaging by CT; type: in vivo, New Zealand White Rabbits; details: autoclaved Pluronic F-108/PEG 400 formulation; 2 injections (0.25 ml) per paw
Experimental: as §3

[8] = Particle size after autoclaving at 121° C. for 20 min. (heat stability); type: physicochemical
Experimental: Compound 2 was added to each of 3×1.5 oz brown glass bottles containing approximately 12 ml of zirconium silicate (1.1 mm dia.) beads in an amount sufficient to be 15% (w/v) of the final suspension. Bottle A contained 3% (w/v) Pluronic F-68. Bottle B contained 3% (w/v) Pluronic F108. Bottle C contained 3% (w/v) Tetronic T-908. The resulting suspensions were milled on a roller mill at approximately 150 rpm for a total of 9 days. Estimates of particle size determined at various intervals were as detailed below:
0.1% (w/v) DOSS was added to the F108 and T908 samples for autoclaving as cloud point modifiers.
as §1

[9] = Crystal forms / polymorphism on recrystallization; type: physicochemical; details: e.g., when recrystallized from various solvents
[10] = 15% Compound 2, 4% Pluronic F-108, 3 ml/kg slow bolus
[11] = 24 hours post injection, 3 ml/kg

Average particle size ([1]; 15% Compound 2, 4% Pluronic F-108, milled 3 days, light scattering) | Final particle size after milling ([1]; Pluronic F-108, milled 3 days, before PEG 400 and autoclaving) | Clearance from the spleen [2, 11] | Clearance from the blood [3, 11] | Clearance from the liver [5, 11] | Aqueous solubility, times lower than ethyl 2-(3,5-bis(acetylamino)-2,4,6-triiodobenzoyloxy)butyrate [6] | Final particle size after autoclaving ([8]; 15% (w/v) compound, 3% (w/v) Pluronic F-108, 10% (w/v) PEG 400, 121° C. for 20 min.) | Stability to heat autoclaving ([8]; with both F108 and T908) | SMILES | Spleen opacification, duration [2, 10] | Spleen opacification, grade [2, 10] | Blood pool opacification, duration [3, 10] | Blood pool opacification, grade [3, 10] | Blood pool opacification, duration ([3]; autoclaved Pluronic F-108/PEG 400 formulation, 3 ml/kg) | Shelf stability [4] | Liver opacification, duration [5, 10] | Liver opacification, grade [5, 10] | Lymphography level of opacification [7] | Lymphography performance [7] | Stability during autoclaving ([8]; nanoparticulate formulations, conventional heat sterilization) | Crystal forms [9]
162 nm | 235 nm | partial clearance | complete clearance | partial clearance | about 40 times | 248 nm | excellent stability to heat autoclaving | CCCCC(OC(=O)c1c(I)c(NC(C)=O)c(I)c(NC(C)=O)c1I)C(=O)OCC (centres unmarked) [Compound 2, ethyl 2-(3,5-diacetamido-2,4,6-triiodobenzoyloxy)hexanoate] | 120 min | very good | > 30 min | excellent | at least 30 min | excellent stability to heat autoclaving and shelf stability | 120 min | very good | highest level of opacification noted to date in this indication | excellent lymphography agent |  | 
 |  |  |  |  |  |  |  | CCOC(=O)C(CC)OC(=O)c1c(I)c(NC(C)=O)c(I)c(NC(C)=O)c1I (centres unmarked) [ethyl 2-(3,5-bis(acetylamino)-2,4,6-triiodobenzoyloxy)butyrate, reference compound] |  |  |  |  |  |  |  |  |  |  | do not exhibit good stability during autoclaving | exhibits multiple crystal forms, i.e., polymorphs
